Reference: patent US20250205356A1, “POLYMER-DRUG CONJUGATES” (PRIMELINK BIOTHERAPEUTICS (SHENZHEN) CO., LTD, priority 2022, published 2025)

Columns and labels:
[1] = test system: Trop2 positive SKBR-3 cells; assay: Antibody mediated internalization in Trop2 expressing tumor cells, FACS; assay type: cell-based; conditions: 100 nM
Description: The Trop2 positive cell line SKBR-3 cells (Breast cancer, ATCC No. HTB30) were used for the following internalization assay. The culture conditions are the same as in Example 21.
(§1) Cells were harvested with 0.25% Trysin/EDTA (T1320, Solarbio) and adjusted the cell concentration to 4×10^6 cells/mL with 1×PBS containing 1% FBS buffer. 100 μL cells per well were then plated in the 96-well cell culture plates and incubated with Trop2 antibodies Trop2-1, Trop2-2, Datopotamab, and Sacituzumab, as well as exemplary anti-Trop2 ADCs (ADC-4, ADC-5, ADC-6, ADC-7, ADC-8 and ADC-9) at final concentration 100 nM for seven time points (0, 0.5, 2, 4, 8, 16, and 24 hours). The mixtures were incubated at 4° C. in an atmosphere of 5% CO2 in air. At specific time points, cells were immediately washed twice and suspended in 100 μL cold wash buffer containing 2% paraformaldehyde for 30 mins. Cells were washed twice and then incubated with 1×PE anti-human IgG Fc Antibody (Cat. No. 366904, Biolegend) at 4° C. and 5% CO2 for another one hour. After the two-step washing by washing buffer, cells were re-suspended in 100 μL FACS buffer, CytoFlex Cytometry (Beckman Coulter) was used to detect the fluorescent signals of cells. The internalization ratio at several time points were calculated as the missing rate of MFI values at specific time point in that at 0 hours. Curves of internalization rate versus incubation time (hours) were plotted with the Graphpad Prism Software.

MCF-7 cells = assay: In vitro cytotoxic assay of anti-Trop2 ADCs (CellTiter-Glo); assay type: cell-based; conditions: for Bottom (%): curve fit bottom
Description: (§2) In brief, 5,000 cells/well were platted in white clear 96-well assay plates (Cat. No. 6005182, PerkinElmer) (excluding edge wells, which contained medium only) in 90 μL basic culture medium (McCoy's 5a medium for SKBR-3 cells, RPMI-1640 medium for NCI-N87 cells, EMEM medium for MCF-7 cells, and Leibovitz's L-15 medium for MDA-MB-468 cells) containing 10% FBS, I % Penicillin-Streptomycin Solution (BL505A, Biosharp Life Sciences), and 2 mM L-Glutamine (Cat. No. 25030081, ThermoFisher) and were grown at 37° C. in a humidified incubator at 5% CO2 atmosphere. […] After additional 72-hour incubation, plates were removed from incubator and equilibrated to room temperature. After approximately 30 mins, 50 μL of CellTiter-Glo® 2.0 Luminescent Cell Viability Reagent (Cat. No. G7573, Promega) were added to each well. After shaking the plates at 450 rpm for 3 mins followed by 10-min incubation without shaking, luminescence was measure on the Envision plate reader (Equipment No. 2104, PerkinElmer) with integration time of 250 ms per well. Curves of luminescence versus ADC concentration (μM) were fitted with GraphPad Prism Software.

SKBR-3 cells = assay: as above; assay type: cell-based; conditions: for Bottom (%): curve fit bottom; for Top (%): curve fit top
Description: as §2

[2] = test system: SKBR-3, NCI-N87, MCF-7, and MDA-MB-468 cells; assay: In vitro cytotoxic assays of anti-Trop2 ADCs, statements on all test cell lines; assay type: cell-based; conditions: four Trop-2 expressing cell lines, FIG. 6
Description: Cytotoxicity of exemplary free linker-payloads (Compounds 2, 3 and 4), free Trop2 antibodies (Trop2-1, Trop2-2, Datopotamab, and Sacituzumab), exemplary anti-Trop2 ADCs (ADC-4, ADC-5, ADC-6, ADC-7, ADC-8 and ADC-9) and Trodelvy (an anti-Trop2 ADC approved by FDA) as positive control was evaluated on SKBR-3 cells (Breast cancer, ATCC No. HTB30), NCI-N87 cells (Gastric cancer, ATCC No. CRL-5822), MCF-7 cells (Breast cancer, ATCC No. HTB-22), and MDA-MB-468 cells (Breast cancer, ATCC No. HTB-132).
as §2, with “After” for “After additional 72-hour incubation, plates were removed from incubator and equilibrated to room temperature. After approximately 30 mins, 50 μL of CellTiter-Glo® 2.0 Luminescent Cell Viability Reagent (Cat. No. G7573, Promega) were added to each well. After”

MDA-MB-468 cells = assay: In vitro cytotoxic assay of anti-Trop2 ADCs (CellTiter-Glo); assay type: cell-based
Description: as §2

NCI-N87 cells = assay: as above; assay type: cell-based
Description: as §2

NCI-N87 cell xenograft = assay: In vivo therapeutic efficacy in NCI-N87 cell xenograft mouse model; set-up: species or system BALB/c female nude mice; conditions: 5 mg/kg, IV, BIW*3
Description: On day 0, NCI-N87 cells (1×10^7 with 1:1 Matrigel) suspended in 0.2 mL PBS supplement with 50% (v/v) matrigel were injected subcutaneously in the right upper flank of 6- to 8-wk-old BALB/c female nude mice (purchased from Beijing Vital River Laboratory Animal Technology Co., Ltd). On day 6, mice were randomized to 8 groups (n=6) when the average tumor volume was 178 mm^3. Treatments were initiated on the very same day (defined as PG-D0). Mice at Trodelvy group received 5.0 mg/kg (i.v., BIW) for 3 wk; mice at the ADC-5 treatment groups were injected with 1.0, 2.5, and 5.0 mg/kg (i.v., BIW) ADC-5 for 3 wk; mice at ADC-6 treatment groups were injected (i.v.) with 1.0 and 2.5 mg/kg ADC-6 weekly (QW) for three doses, or 5.0 mg/kg (single dose at day PG-D0). The tumor volumes and body weights were measured and recorded twice a week. On the termination day 28 (defined as PG-D28), tumor weight were dissected and measured. Tumor growth inhibition rate (%) was calculated as (TVCR−TVTR)/TVCR (%), where TVCR and TVTR are the relative tumor volumes of the vehicle control group and the experimental groups, respectively. Mice were euthanized and deemed to have succumbed to disease once tumors grew greater than 2,500 mm^3. GraphPad Prism 6.0 Software was used for statistical analysis with a one-way ANOVA.

[3] = test system: HER2 positive NCI-N87 cells; assay: Antibody mediated internalization in HER2 expressing tumor cells, FACS; assay type: cell-based; conditions: 100 nM
Description: (§3) The culture conditions of two cell lines are the same as in Example 18.
as §1, with “(Tl 320,” for “(T1320,”, “100 μL cells per well were then plated in the 96-well cell culture plates and incubated with Trop2 antibodies Trop2-1, Trop2-2, Datopotamab, and Sacituzumab, as well as exemplary anti-Trop2 ADCs (ADC-4, ADC-5, ADC-6, ADC-7, ADC-8 and ADC-9) at final concentration 100 nM for seven time points (0, 0.5, 2, 4, 8, 16, and 24 hours).” left out, “median fluorescence intensity (MFI)” for “MFI”

[4] = test system: HER2 positive SKBR-3 cells; assay: as above; assay type: cell-based; conditions: 100 nM
Description: as §3
as §1, with “(Tl 320,” for “(T1320,”, “100 μL cells per well were then plated in the 96-well cell culture plates and incubated with Trop2 antibodies Trop2-1, Trop2-2, Datopotamab, and Sacituzumab, as well as exemplary anti-Trop2 ADCs (ADC-4, ADC-5, ADC-6, ADC-7, ADC-8 and ADC-9) at final concentration 100 nM for seven time points (0, 0.5, 2, 4, 8, 16, and 24 hours).” left out, “median fluorescence intensity (MFI)” for “MFI”

[5] = 72-hour incubation, read-out: ReIC50

Sacituzumab: free Trop2 antibody
MFI value of internalization assay ([1]; 0 h): 216386
MFI value of internalization assay ([1]; 0.5 h): 205198.9
MFI value of internalization assay ([1]; 2 h): 90975.5
MFI value of internalization assay ([1]; 4 h): 75749.9
MFI value of internalization assay ([1]; 8 h): 47695.7
MFI value of internalization assay ([1]; 16 h): 33528.1
MFI value of internalization assay ([1]; 24 h): 32475
Bottom (%) (MCF-7 cells): 0%
Bottom (%) (SKBR-3 cells): 3.225%
Top (%) (SKBR-3 cells): 9.741%
cytotoxic activity on the test cell lines [2]: no target cell killing effect

Trodelvy
IC50 (MCF-7 cells; [5]): 40.5 nM
Bottom (%) (MCF-7 cells): 0%
Top (%) (MCF-7 cells; curve fit top): 35.94%
IC50 (MDA-MB-468 cells; [5]): 2.33 nM
Bottom (%) (MDA-MB-468 cells; curve fit bottom): 0%
Top (%) (MDA-MB-468 cells; curve fit top): 79.13%
IC50 (NCI-N87 cells; [5]): 5.39 nM
Bottom (%) (NCI-N87 cells; curve fit bottom): 0%
Top (%) (NCI-N87 cells; curve fit top): 76.68%
IC50 (SKBR-3 cells; [5]): 0.846 nM
Bottom (%) (SKBR-3 cells): 0%
Top (%) (SKBR-3 cells): 78.16%
TGI (%) in days after administration, Day 3 (NCI-N87 cell xenograft; Day 3): 44.83%
TGI (%) in days after administration, Day 7 (NCI-N87 cell xenograft; Day 7): 44.43%
TGI (%) in days after administration, Day 10 (NCI-N87 cell xenograft; Day 10): 39.67%
TGI (%) in days after administration, Day 14 (NCI-N87 cell xenograft; Day 14): 42.59%
TGI (%) in days after administration, Day 17 (NCI-N87 cell xenograft; Day 17): 49.05%
TGI (%) in days after administration, Day 21 (NCI-N87 cell xenograft; Day 21): 55.07%
TGI (%) in days after administration, Day 24 (NCI-N87 cell xenograft; Day 24): 55.32%
TGI (%) in days after administration, Day 28 (NCI-N87 cell xenograft; Day 28): 54.53%

T-DM1
MFI value of internalization assay ([3]; 0 h): 455385
MFI value of internalization assay ([3]; 0.5 h): 452742.7
MFI value of internalization assay ([3]; 2 h): 475100.1
MFI value of internalization assay ([3]; 4 h): 369328.5
MFI value of internalization assay ([3]; 8 h): 345220.2
MFI value of internalization assay ([3]; 16 h): 362105.3
MFI value of internalization assay ([3]; 24 h): 317532.7
MFI value of internalization assay ([4]; 0 h): 89030.9
MFI value of internalization assay ([4]; 0.5 h): 54683.9
MFI value of internalization assay ([4]; 2 h): 51777.7
MFI value of internalization assay ([4]; 4 h): 39019.6
MFI value of internalization assay ([4]; 8 h): 31583.1
MFI value of internalization assay ([4]; 16 h): 29393.7
MFI value of internalization assay ([4]; 24 h): 20671.3

B1: Datopotamab: native human IgG1 antibody of DS-1062 from Daiichi Sankyo, free antibody control (antibody, chains of the INN, looked up, V domains shown)
VH: QVQLVQSGAEVKKPGASVKVSCKASGYTFTTAGMQWVRQAPGQGLEWMGWINTHSGVPKYAEDFKGRVTISADTSTSTAYLQLSSLKSEDTAVYYCARSGFGSSYWYFDVWGQGTLVTVSS
VL: DIQMTQSPSSLSASVGDRVTITCKASQDVSTAVAWYQQKPGKAPKLLIYSASYRYTGVPSRFSGSGSGTDFTLTISSLQPEDFAVYYCQQHYITPLTFGQGTKLEIK
MFI value of internalization assay ([1]; 0 h): 237324.4
MFI value of internalization assay ([1]; 0.5 h): 112896.1
MFI value of internalization assay ([1]; 2 h): 41192.3
MFI value of internalization assay ([1]; 4 h): 33418.6
MFI value of internalization assay ([1]; 8 h): 19928.3
MFI value of internalization assay ([1]; 16 h): 14134.9
MFI value of internalization assay ([1]; 24 h): 8497.3
